Results taken from ChEMBL document CHEMBL4706479, “Novel Aryloxyethyl Derivatives of 1-(1-Benzoylpiperidin-4-yl)methanamine as the Extracellular Regulated Kinases 1/2 (ERK1/2) Phosphorylation-Preferring Serotonin 5-HT Receptor-Biased Agonists with Robust Antidepressant-like Activity” (J Med Chem, 2019).
≈ marks a conversion by molar mass, not a printed value. Calls of active or inactive are those of the source. No cut-off for these calls is given here.

Legend:
[1] = Tmax in Wistar rat at […], po measured after 60 mins by HPLC analysis; assay type: ADME, organism-based; conditions: in vivo, dose 2.5 mg/kg
[2] = target: Alpha-1A adrenergic receptor (Homo sapiens) (UniProt P35348); experiment: Inhibition of adrenergic alpha-1A receptor (unknown origin) at 10 uM relative to control
[3] = target: Alpha-1B adrenergic receptor (Homo sapiens) (UniProt P35368); experiment: Inhibition of adrenergic alpha-1B receptor (unknown origin) at 1 uM relative to control
[4] = target: Alpha-2A adrenergic receptor (Homo sapiens) (UniProt P08913); experiment: Inhibition of adrenergic alpha-2A receptor (unknown origin) at 1 uM relative to control
[5] = target: Beta-2 adrenergic receptor (Homo sapiens) (UniProt P07550); experiment: Inhibition of adrenergic beta2 receptor (unknown origin) at 10 uM relative to control
[6] = target: Cannabinoid receptor 1 (Homo sapiens) (UniProt P21554); experiment: Inhibition of cannabinoid receptor 1 (unknown origin) at 10 uM relative to control
[7] = target: Muscarinic acetylcholine receptor M1 (Homo sapiens) (UniProt P11229); experiment: Inhibition of muscarinic M1 receptor (unknown origin) at 10 uM relative to control
[8] = target: Muscarinic acetylcholine receptor M2 (Homo sapiens) (UniProt P08172); experiment: Inhibition of muscarinic M2 receptor (unknown origin) at 10 uM relative to control
[9] = target: Muscarinic acetylcholine receptor M3 (Homo sapiens) (UniProt P20309); experiment: Inhibition of muscarinic M3 receptor (unknown origin) at 10 uM relative to control
[10] = target: Muscarinic acetylcholine receptor M4 (Homo sapiens) (UniProt P08173); experiment: Inhibition of muscarinic M4 receptor (unknown origin) at 1 uM relative to control
[11] = target: Kappa-type opioid receptor (Homo sapiens) (UniProt P41145); experiment: Inhibition of kappa opioid receptor (unknown origin) at 10 uM relative to control
[12] = target: Mu-type opioid receptor (Homo sapiens) (UniProt P35372); experiment: Inhibition of mu opioid receptor (unknown origin) at 10 uM relative to control
[13] = target: Glucocorticoid receptor (Homo sapiens) (UniProt P04150); experiment: Inhibition of glucocorticoid receptor (unknown origin) at 10 uM relative to control
[14] = target: 5-hydroxytryptamine receptor 1B (Homo sapiens) (UniProt P28222); experiment: Inhibition of 5-HT1B (unknown origin) at 10 uM relative to control
[15] = target: 5-hydroxytryptamine receptor 2B (Homo sapiens) (UniProt P41595); experiment: Inhibition of 5-HT2B (unknown origin) at 10 uM relative to control
[16] = target: 5-hydroxytryptamine receptor 6 (Homo sapiens) (UniProt P50406); experiment: Inhibition of 5-HT6 (unknown origin) at 1 uM relative to control
[17] = target: 5-hydroxytryptamine receptor 7 (Homo sapiens) (UniProt P34969); experiment: Inhibition of 5-HT7 (unknown origin) at 1 uM relative to control
[18] = target: Sodium-dependent noradrenaline transporter (Homo sapiens) (UniProt P23975); experiment: Inhibition of norepinephrine transporter (unknown origin) at 10 uM relative to control
[19] = species on record: Homo sapiens; experiment: Inhibition of L-type calcium channel dihydropyridine binding site (unknown origin) at 10 uM relative to control
[20] = species on record: Homo sapiens; experiment: Inhibition of potassium channel (unknown origin) at 10 uM relative to control
[21] = species on record: Homo sapiens; experiment: Inhibition of sodium channel site2 (unknown origin) at 10 uM relative to control
[22] = target: Tyrosine-protein kinase Lck (Homo sapiens) (UniProt P06239); experiment: Inhibition of LCK (unknown origin) at 10 uM relative to control
[23] = target: Prostaglandin G/H synthase 2 (Homo sapiens) (UniProt P35354); experiment: Inhibition of COX2 (unknown origin) at 10 uM relative to control
[24] = target: MAO-A (Homo sapiens, UniProt P21397); experiment: Inhibition of MAO-A (unknown origin) at 10 uM relative to control
[25] = target: hERG (KCNH2) (Homo sapiens, UniProt Q12809); experiment: Inhibition of human ERG at 0.1 uM by patch clamp technique relative to control
[26] = Aqueous solubility of compound in simulated gastric fluid at 200 uM; assay type: physicochemical
[27] = Aqueous solubility of compound in simulated intestinal fluid at 200 uM; assay type: physicochemical
[28] = Permeability of compound across basolateral to apical side in human Caco-2 cells at pH 7.4; assay type: ADME, cell-based; conditions: Caco-2, pH 7.4, read-out: permeability
[29] = tested on: MDCK-II; experiment: Inhibition of P-gp in human MDR1-MDCKII cells at 10 uM relative to control; assay type: cell-based; conditions: Canis lupus familiaris
[30] = target: CYP3A4 (Homo sapiens, UniProt P08684); experiment: Inhibition of human recombinant CYP3A4 at 10 uM relative to control; assay type: ADME
[31] = target: 5-hydroxytryptamine receptor 2A (Homo sapiens) (UniProt P28223); experiment: Displacement of [3H]-ketanserin from human recombinant 5-HT2A receptor stably expressed in CHO-K1 cell membranes at 1 uM measured after 90 mins by microbeta2 scintillation counting analysis relative to control; conditions: Cell membrane
[32] = tested on: Rattus norvegicus; experiment: In vivo biased agonist activity at 5-HT1A receptor in rat prefrontal brain cortex assessed as increase in ERK1/2 phosphorylation levels at […], po administered as single dose by Alphalisa assay; assay type: functional, organism-based; conditions: time 5-60 min, TDE = time-dependent effect
[33] = tested on: Rattus norvegicus; experiment: In vivo biased agonist activity at 5-HT1A receptor in rat prefrontal brain cortex assessed as increase in ERK1/2 phosphorylation levels at 0.04 to […], po measured at 15 mins by Alphalisa assay; assay type: functional, organism-based; conditions: dose lower 0.04 mg/kg, dose upper […]
[34] = Cmax in Wistar rat brain at […], po measured after 60 mins by HPLC analysis; assay type: ADME, organism-based; parameters: route oral, dose 2.5 mg/kg, time 60 min
[35] = tested on: Rattus norvegicus; experiment: Antidepressant-like activity in Wistar rat assessed as minimum effective dose causing reduction in immobility time after oral administration with compound 15 mins prior to testing and measured for 5 mins test period by Porsolt-forced swim test; assay type: functional; conditions: 20 min, read-out: MED
[36] = tested on: Rattus norvegicus; experiment: Antidepressant-like activity in Wistar rat assessed as minimum effective dose causing reduction in immobility time after oral administration with compound 60 mins prior to testing and measured for 5 mins test period by Porsolt-forced swim test; assay type: functional; conditions: 1.083 h, time 65 min, read-out: MED
[37] = tested on: Rattus norvegicus; experiment: Antidepressant-like activity in Wistar rat assessed as maximum effective dose causing reduction in immobility time after oral administration with compound 60 mins prior to testing and measured for 5 mins test period by Porsolt-forced swim test; assay type: functional; conditions: time 65 min; 1.083 h
[38] = tested on: Rattus norvegicus; experiment: Antidepressant-like activity in Wistar rat assessed as reduction in immobility time at 0.04 to […], po administered 60 mins prior to testing and measured for 5 mins test period in presence of 5-HT1A antagonist WAY100635 by Porsolt-forced swim test; assay type: functional, organism-based; conditions: dose lower 0.04 mg/kg, dose upper […], time 65.0 min
[39] = in vitro; conditions: human, Caco-2, pH 6.5

Muscarinic acetylcholine receptor M3 (Homo sapiens), sequence (P20309 whole entry, looked up): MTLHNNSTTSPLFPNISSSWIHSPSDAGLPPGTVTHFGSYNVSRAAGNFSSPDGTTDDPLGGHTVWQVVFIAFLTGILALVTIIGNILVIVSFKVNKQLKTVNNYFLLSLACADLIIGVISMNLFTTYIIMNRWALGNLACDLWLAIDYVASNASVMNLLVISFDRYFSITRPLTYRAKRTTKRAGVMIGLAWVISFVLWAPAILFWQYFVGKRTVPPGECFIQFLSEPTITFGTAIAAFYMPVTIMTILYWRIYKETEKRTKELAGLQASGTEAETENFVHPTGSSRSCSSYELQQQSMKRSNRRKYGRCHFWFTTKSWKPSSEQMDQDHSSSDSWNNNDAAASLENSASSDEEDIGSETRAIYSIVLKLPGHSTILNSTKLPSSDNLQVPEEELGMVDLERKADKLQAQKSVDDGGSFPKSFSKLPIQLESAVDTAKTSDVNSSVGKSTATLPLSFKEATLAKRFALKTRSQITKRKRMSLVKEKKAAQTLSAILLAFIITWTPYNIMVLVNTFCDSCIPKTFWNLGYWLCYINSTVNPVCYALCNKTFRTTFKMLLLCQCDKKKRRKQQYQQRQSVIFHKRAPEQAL
5-hydroxytryptamine receptor 2A (Homo sapiens), sequence (P28223 whole entry): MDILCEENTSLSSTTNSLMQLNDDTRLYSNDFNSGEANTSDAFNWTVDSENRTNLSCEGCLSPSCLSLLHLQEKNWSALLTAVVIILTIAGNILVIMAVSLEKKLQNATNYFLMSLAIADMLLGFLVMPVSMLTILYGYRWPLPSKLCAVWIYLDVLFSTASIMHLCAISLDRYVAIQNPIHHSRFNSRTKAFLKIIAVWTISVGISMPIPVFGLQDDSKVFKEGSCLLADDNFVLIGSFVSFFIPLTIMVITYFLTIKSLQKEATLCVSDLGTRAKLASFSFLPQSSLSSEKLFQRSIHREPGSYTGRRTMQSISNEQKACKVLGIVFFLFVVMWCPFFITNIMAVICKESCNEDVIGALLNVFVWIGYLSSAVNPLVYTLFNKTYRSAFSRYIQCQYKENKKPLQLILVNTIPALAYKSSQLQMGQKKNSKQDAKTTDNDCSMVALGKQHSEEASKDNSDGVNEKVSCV
5-hydroxytryptamine receptor 7 (Homo sapiens), sequence (P34969 whole entry): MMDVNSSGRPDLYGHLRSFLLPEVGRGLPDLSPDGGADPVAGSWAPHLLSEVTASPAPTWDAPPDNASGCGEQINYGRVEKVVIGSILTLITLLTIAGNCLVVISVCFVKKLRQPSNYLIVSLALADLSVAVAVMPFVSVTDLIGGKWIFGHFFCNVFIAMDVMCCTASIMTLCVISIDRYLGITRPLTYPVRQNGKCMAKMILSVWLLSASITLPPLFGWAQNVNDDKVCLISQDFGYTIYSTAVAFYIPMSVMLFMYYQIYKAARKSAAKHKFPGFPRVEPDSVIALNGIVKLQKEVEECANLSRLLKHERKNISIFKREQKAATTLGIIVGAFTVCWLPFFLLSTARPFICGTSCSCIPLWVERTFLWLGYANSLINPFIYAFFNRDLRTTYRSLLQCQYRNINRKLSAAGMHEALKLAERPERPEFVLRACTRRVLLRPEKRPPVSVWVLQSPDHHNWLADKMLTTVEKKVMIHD
Muscarinic acetylcholine receptor M4 (Homo sapiens), sequence (P08173 whole entry): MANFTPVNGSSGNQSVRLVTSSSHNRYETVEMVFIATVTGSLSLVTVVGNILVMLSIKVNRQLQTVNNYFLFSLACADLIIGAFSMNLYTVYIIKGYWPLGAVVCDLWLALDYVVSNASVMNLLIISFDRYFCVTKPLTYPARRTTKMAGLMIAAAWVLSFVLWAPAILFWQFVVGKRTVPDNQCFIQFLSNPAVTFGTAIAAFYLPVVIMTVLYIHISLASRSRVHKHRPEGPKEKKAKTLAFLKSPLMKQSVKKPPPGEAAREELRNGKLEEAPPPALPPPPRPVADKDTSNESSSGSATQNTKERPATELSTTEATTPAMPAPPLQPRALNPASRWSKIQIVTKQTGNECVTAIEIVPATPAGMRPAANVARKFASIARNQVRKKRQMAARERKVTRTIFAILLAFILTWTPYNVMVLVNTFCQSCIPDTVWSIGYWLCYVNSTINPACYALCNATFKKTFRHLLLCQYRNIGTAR
Sodium-dependent noradrenaline transporter (Homo sapiens), sequence (P23975 whole entry): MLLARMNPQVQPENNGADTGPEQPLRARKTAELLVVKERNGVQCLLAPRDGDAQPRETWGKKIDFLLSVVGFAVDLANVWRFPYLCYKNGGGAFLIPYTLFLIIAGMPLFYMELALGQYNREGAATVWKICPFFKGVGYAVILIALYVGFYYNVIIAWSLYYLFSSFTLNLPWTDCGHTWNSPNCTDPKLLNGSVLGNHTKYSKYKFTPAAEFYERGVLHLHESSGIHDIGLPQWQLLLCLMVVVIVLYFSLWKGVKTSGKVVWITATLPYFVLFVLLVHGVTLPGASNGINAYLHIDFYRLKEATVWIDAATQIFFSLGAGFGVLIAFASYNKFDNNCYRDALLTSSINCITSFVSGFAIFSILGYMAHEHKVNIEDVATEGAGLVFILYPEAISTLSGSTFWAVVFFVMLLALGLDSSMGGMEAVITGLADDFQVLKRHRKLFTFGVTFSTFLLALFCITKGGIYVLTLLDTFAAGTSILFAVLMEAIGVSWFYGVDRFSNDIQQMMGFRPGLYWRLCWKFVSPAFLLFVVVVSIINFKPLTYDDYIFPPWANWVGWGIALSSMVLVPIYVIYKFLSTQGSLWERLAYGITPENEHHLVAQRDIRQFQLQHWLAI
CYP3A4, sequence (P08684 whole entry): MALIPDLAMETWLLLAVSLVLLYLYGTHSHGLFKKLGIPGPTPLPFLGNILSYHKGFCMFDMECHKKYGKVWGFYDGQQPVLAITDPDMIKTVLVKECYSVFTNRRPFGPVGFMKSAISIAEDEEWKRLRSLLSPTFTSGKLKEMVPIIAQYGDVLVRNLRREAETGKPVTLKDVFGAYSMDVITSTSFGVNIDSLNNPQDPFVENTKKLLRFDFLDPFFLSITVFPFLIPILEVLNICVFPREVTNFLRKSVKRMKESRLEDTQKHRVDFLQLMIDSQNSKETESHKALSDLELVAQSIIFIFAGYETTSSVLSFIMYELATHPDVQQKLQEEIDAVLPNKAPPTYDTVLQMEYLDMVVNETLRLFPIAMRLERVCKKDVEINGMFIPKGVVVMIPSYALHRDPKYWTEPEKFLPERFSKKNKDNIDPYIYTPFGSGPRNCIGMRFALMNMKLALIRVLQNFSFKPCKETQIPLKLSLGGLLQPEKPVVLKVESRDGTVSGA
Alpha-1A adrenergic receptor (Homo sapiens), sequence (P35348 whole entry): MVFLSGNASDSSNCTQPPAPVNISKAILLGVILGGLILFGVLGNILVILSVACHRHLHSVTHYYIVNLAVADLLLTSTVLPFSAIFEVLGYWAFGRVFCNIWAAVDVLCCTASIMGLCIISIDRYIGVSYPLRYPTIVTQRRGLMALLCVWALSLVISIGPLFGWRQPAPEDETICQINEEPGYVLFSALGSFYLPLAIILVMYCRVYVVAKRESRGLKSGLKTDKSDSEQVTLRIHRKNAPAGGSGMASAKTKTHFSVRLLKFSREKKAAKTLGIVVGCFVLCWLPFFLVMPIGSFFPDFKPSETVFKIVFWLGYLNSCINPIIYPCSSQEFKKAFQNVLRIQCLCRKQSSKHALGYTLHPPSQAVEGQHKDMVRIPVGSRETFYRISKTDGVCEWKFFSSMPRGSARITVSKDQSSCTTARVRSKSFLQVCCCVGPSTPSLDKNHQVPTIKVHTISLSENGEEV
5-hydroxytryptamine receptor 1B (Homo sapiens), sequence (P28222 whole entry): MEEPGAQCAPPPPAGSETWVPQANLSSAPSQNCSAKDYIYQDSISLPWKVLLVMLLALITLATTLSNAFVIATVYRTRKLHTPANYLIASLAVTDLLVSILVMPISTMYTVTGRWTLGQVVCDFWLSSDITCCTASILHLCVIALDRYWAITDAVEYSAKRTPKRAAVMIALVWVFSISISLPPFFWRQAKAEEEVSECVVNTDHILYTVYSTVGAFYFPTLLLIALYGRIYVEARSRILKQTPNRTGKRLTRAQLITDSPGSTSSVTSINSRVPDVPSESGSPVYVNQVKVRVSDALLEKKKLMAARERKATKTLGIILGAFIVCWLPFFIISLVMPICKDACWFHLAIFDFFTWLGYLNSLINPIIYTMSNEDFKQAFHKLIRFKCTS
Glucocorticoid receptor (Homo sapiens), sequence (P04150 whole entry): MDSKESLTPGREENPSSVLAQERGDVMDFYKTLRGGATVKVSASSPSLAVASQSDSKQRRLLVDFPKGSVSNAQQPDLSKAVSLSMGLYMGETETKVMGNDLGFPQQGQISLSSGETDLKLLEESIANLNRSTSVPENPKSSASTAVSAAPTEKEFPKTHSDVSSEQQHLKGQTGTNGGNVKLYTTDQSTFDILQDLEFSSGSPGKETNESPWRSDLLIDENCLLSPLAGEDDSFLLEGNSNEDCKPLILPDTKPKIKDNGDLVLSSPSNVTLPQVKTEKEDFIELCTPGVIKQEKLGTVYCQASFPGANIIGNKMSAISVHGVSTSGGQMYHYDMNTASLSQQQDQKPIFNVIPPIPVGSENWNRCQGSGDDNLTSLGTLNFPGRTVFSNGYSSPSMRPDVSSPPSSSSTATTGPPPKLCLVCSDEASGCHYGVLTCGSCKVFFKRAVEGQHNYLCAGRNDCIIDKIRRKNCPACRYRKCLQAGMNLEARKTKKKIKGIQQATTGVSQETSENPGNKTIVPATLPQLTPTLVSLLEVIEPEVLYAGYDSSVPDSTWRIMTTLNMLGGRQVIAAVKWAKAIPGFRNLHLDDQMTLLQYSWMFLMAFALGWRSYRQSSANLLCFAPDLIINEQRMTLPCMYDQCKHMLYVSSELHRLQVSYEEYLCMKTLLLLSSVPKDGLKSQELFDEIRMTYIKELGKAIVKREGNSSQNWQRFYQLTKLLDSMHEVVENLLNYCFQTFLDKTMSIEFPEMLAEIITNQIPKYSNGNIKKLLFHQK

## O=C(c1ccc(F)c(Cl)c1)N1CCC(F)(CNCCOc2ccccn2)CC1
[1]
  Tmax at 1 h: 15 min
[2]
  inhibition: 99.7%
[3]
  inhibition: 32.2%
[4]
  inhibition: 29.9%
[5]
  inhibition: 3.8%
[6]
  inhibition: 0.4%
[7]
  inhibition: 12.9%
[8]
  inhibition: 6.3%
[9]
  inhibition: 9.7%
[10]
  inhibition: 8.8%
[11]
  inhibition: 34.6%
[12]
  inhibition: 42.9%
[13]
  inhibition: -5.1%
[14]
  inhibition: -9.1%
[15]
  inhibition: 39.7%
[16]
  inhibition: 12.1%
[17]
  inhibition: 13.2%
[18]
  inhibition: -2%
[19]
  inhibition: 18.2%
[20]
  inhibition: 3.8%
[21]
  inhibition: 48.8%
[22]
  inhibition: 18.2%
[23]
  inhibition: -9.2%
[24]
  inhibition at 10 µM: -3.6%
[25]
  inhibition at 0.1 µM: 0.1%
[26]
  solubility at 200 µM: 200 µM (≈ 82 µg/mL)
[27]
  solubility at 200 µM: 192 µM (≈ 78.8 µg/mL)
[28]
  Papp B→A: 22.4 ×10⁻⁶ cm/s
[29]
  inhibition: 6.5%
[30]
  inhibition at 10 µM: 23.2%
[31]
  Activity: < 50%
[32]
  Activity: Tde
[33]
  Activity: Active
[34]
  Cmax at 1 h: 124 ng/mL
[35]
  minimal effective dose: 0.16 mg/kg
[36]
  minimal effective dose: 0.16 mg/kg
[37]
  ED: 2.5 mg/kg
[38]
  Activity: inactive
[39]
  Papp A→B: 25.9 ×10⁻⁶ cm/s
